In brackets after ≈: the same amount, converted by molar mass.

In assay [1] the test system is Staphylococcus aureus. The assay can be described thus: Antibacterial activity against constitutively-resistant Staphylococcus aureus. The assay is classed as functional.
Assay [2] has as its system Staphylococcus aureus. The assay can be described thus: Antibacterial activity against inducibly-resistant Staphylococcus aureus. The assay is classed as functional.
For assay [3], the system named is Staphylococcus aureus. The assay can be described thus: Antibacterial activity against methicillin-resistant Staphylococcus aureus. The assay is classed as functional.
In assay [4] the test system is Escherichia coli. The assay can be described thus: Antibacterial activity against Escherichia coli ATCC 25922 assessed as inhibition zone. The assay is classed as functional.
A further assay concerns Proteus vulgaris. The assay can be described thus: Antibacterial activity against Proteus vulgaris ATCC 4636 assessed as inhibition zone. The assay is classed as functional.
The test system of a further assay is Bacillus spizizenii. In words: Antibacterial activity against Bacillus subtilis ATCC 6633 assessed as inhibition zone. The assay is classed as functional.
In assay [5] the test system is Staphylococcus aureus. The assay can be described thus: Antibacterial activity against Staphylococcus aureus ATCC 25923 assessed as inhibition zone. The assay is classed as functional.
Assay [6] concerns Pseudomonas aeruginosa. In words: Antibacterial activity against Pseudomonas aeruginosa ATCC 27853 assessed as inhibition zone. The assay is classed as functional.
Assay [7] concerns Bacillus subtilis. In words: Antibacterial activity against Bacillus subtilis NCIM-2162 incubated for 12 hrs. The assay is classed as functional.
Assay [8] has as its system Staphylococcus aureus. The assay can be described thus: Antibacterial activity against Staphylococcus aureus NCIM-2602 incubated for 12 hrs. The assay is classed as functional.
Assay [9] relates to Escherichia coli. The assay can be described thus: Antibacterial activity against Escherichia coli NCIM-2576 incubated for 8 hrs. The assay is classed as functional.
Another assay has as its system Pseudomonas fluorescens. The assay can be described thus: Antibacterial activity against Pseudomonas fluorescence NCIM-2059 incubated for 8 hrs. The assay is classed as functional.
The test system of assay [10] is Candida albicans. The assay can be described thus: Antifungal activity against Candida albicans MTCC 227 incubated for 2 days by microdilution method. The assay is classed as functional. Conditions: MTCC 227, 48 h, time 2 day.
For assay [11], the system named is Bacillus subtilis. The assay can be described thus: Antibacterial activity against Bacillus subtilis MTCC 441 incubated for 24 hrs by two-fold serial dilution method. The assay is classed as functional.
The test system of a further assay is Aspergillus brasiliensis. The assay can be described thus: Antifungal activity against Aspergillus brasiliensis MTCC 1344 incubated for 7 days by microdilution method. The assay is classed as functional. Conditions: MTCC 1344, 168 h, time 7 day.
Assay [12] relates to Staphylococcus aureus. The assay can be described thus: Antibacterial activity against Staphylococcus aureus MTCC 7443 incubated for 24 hrs by two-fold serial dilution method. The assay is classed as functional.
Assay [13] concerns Pseudomonas aeruginosa. In words: Antibacterial activity against Pseudomonas aeruginosa MTCC 424 incubated for 24 hrs by two-fold serial dilution method. The assay is classed as functional.
Another assay deals with Aspergillus fumigatus. In words: Antifungal activity against Aspergillus fumigatus RCMB-02568 assessed as diameter of inhibition zone at 5 mg/ml by diffusion technique. The assay is classed as functional. Conditions: read-out: DIZ.
In assay [14] the test system is Syncephalastrum racemosum. The assay can be described thus: Antifungal activity against Syncephalastrum racemosum RCMB-05922 assessed as diameter of inhibition zone at 5 mg/ml by diffusion technique. Conditions: read-out: DIZ. The assay is classed as functional.
For the next assay, the system named is Geotrichum candidum. In words: Antifungal activity against Geotrichum candidum RCMB-05097 assessed as diameter of inhibition zone at 5 mg/ml by diffusion technique. The assay is classed as functional. The settings on record: read-out: DIZ.
For another assay, the system named is HepG2. The assay can be described thus: Anticancer activity against human HepG2 cells by MTT assay. The assay is classed as functional, cell-based.
The next assay relates to Bacillus cereus. The assay can be described thus: Antibacterial activity against Bacillus cereus RCMB-010067 assessed as diameter of inhibition zone at 5 mg/ml by diffusion technique. The assay is classed as functional. Conditions: read-out: DIZ.
Assay [15] has as its system Escherichia coli. The assay can be described thus: Antibacterial activity against Escherichia coli RCMB-010052 assessed as diameter of inhibition zone at 5 mg/ml by diffusion technique. The settings on record: read-out: DIZ. The assay is classed as functional.
Assay [16] has as its system Staphylococcus aureus. In words: Antibacterial activity against Staphylococcus aureus RCMB-010010 assessed as diameter of inhibition zone at 5 mg/ml by diffusion technique. The assay is classed as functional. Conditions: read-out: DIZ.
Assay [17] concerns Pseudomonas aeruginosa. The assay can be described thus: Antibacterial activity against Pseudomonas aeruginosa RCMB-010043 assessed as diameter of inhibition zone at 5 mg/ml by diffusion technique. The assay is classed as functional. The settings on record: read-out: DIZ.
Assay [18] deals with Candida albicans. The assay can be described thus: Antifungal activity against Candida albicans RCMB-05036 assessed as diameter of inhibition zone at 5 mg/ml by diffusion technique. The assay is classed as functional. Conditions: read-out: DIZ.

In the case of `CO[C@@H]1[C@@H](O[C@@H]2O[C@H](C)[C@@H](O[C@H]3C[C@@](C)(O)[C@@H](OC(=O)CCCc4cn(C56CC7CC(CC(C7)C5)C6)nn4)[C@H](C)O3)[C@H](N(C)C)[C@H]2O)[C@H]2CC(O[Si](C)(C)C(C)(C)C)O[C@@H]1CC(=O)O[C@H](C)CC/C=C/C=C/[C@H](O[C@H]1CC[C@H](N(C)C)[C@@H](C)O1)[C@H](C)C2` (stereo partly specified), the MIC in the assay with Staphylococcus aureus [1], with Staphylococcus aureus [2] and with Staphylococcus aureus [3] was 8 µg/mL (≈ 6.44 µM) in each case.

Consider `O=C(OCc1cn(Cc2cccc(F)c2)nn1)c1cccc2c(=O)c3ccccc3[nH]c12`, for which the “inhibition zone (IZ)” value in the assay with Escherichia coli [4], in the assay on Proteus vulgaris, in the assay with Bacillus spizizenii, with Staphylococcus aureus [5] and in the assay with Pseudomonas aeruginosa [6] was 9.5 mm throughout.

As for `Fc1ccc(-c2cnnn2Cc2csc(-c3ccc(Cl)cc3)n2)cc1`, the MIC90 in the assay with Bacillus subtilis [7], in the assay on Staphylococcus aureus [8], with Escherichia coli [9] and against Pseudomonas fluorescens was 4.5 µg/mL (≈ 12.1 µM) each time.

With `COc1ccc(NC(=O)Cn2cc(COc3ccc(OCc4cn(CC(=O)Nc5ccc(OC)cc5)nn4)cc3)nn2)cc1`, the minimum inhibitory concentration (MIC) in the assay on Candida albicans [10], in the assay on Bacillus subtilis [11], against Aspergillus brasiliensis, in the assay on Staphylococcus aureus [12] and against Pseudomonas aeruginosa [13] was 0.167 µM (≈ 0.1 µg/mL) each time.

For `COC(=O)c1ccc(-n2nc(N)c(C(=O)NCCNC(=O)c3nn(-c4ccc(C(=O)OC)cc4)nc3N)n2)cc1`, the zone of inhibition at 5000 µg/mL (with Aspergillus fumigatus; in [14]; in the assay on Geotrichum candidum; in the assay on Bacillus cereus; with Escherichia coli [15]; with Staphylococcus aureus [16]) was 20.4 mm in each case. For the same compound, the zone of inhibition at 5000 µg/mL in the assay on Pseudomonas aeruginosa [17] and in the assay with Candida albicans [18] was 20.4 mm throughout. The compound also came in with a half-maximal inhibitory concentration (IC50) in the assay on HepG2 of 11.6 µg/mL (≈ 21.1 µM).

Regarding SPIRAMYCIN, the MIC in the assay on Staphylococcus aureus [1], with Staphylococcus aureus [2] and against Staphylococcus aureus [3] was > 256 µg/mL throughout.

Turning to `COc1ccc(-c2cnnn2Cc2csc(-c3ccc(Br)cc3)n2)cc1`, the MIC90 in the assay on Bacillus subtilis [7], in the assay with Staphylococcus aureus [8], in the assay with Escherichia coli [9] and with Pseudomonas fluorescens was 4.5 µg/mL (≈ 10.5 µM) in each case.

Regarding `CO[C@@H]1[C@@H](O[C@@H]2O[C@H](C)[C@@H](O[C@H]3C[C@@](C)(O)[C@@H](OC(=O)CCCc4cn(CSc5ccccc5)nn4)[C@H](C)O3)[C@H](N(C)C)[C@H]2O)[C@H]2CC(O[Si](C)(C)C(C)(C)C)O[C@@H]1CC(=O)O[C@H](C)CC/C=C/C=C/[C@H](O[C@H]1CC[C@H](N(C)C)[C@@H](C)O1)[C@H](C)C2` (stereo partly specified), the MIC in the assay on Staphylococcus aureus [1], in the assay with Staphylococcus aureus [2] and with Staphylococcus aureus [3] was 8 µg/mL (≈ 6.5 µM) throughout.

The values above are taken from ChEMBL document CHEMBL4699440, “Comprehensive review on the anti-bacterial activity of 1,2,3-triazole hybrids” (Eur J Med Chem, 2019).
